This passage reports IC50 and inhibition results from ChEMBL document CHEMBL6109041, “Docking and structure activity relationship studies of potent and selective thiazolidinethione GSK-3 inhibitors” (Bioorg Med Chem Lett, 2025).

For assay [1], the target named is T1, Glycogen synthase kinase-3 alpha (Homo sapiens, UniProt P49840). Put plainly: Inhibition of GSK3alpha (unknown origin).
Target sequence in this assay (P49840 whole entry): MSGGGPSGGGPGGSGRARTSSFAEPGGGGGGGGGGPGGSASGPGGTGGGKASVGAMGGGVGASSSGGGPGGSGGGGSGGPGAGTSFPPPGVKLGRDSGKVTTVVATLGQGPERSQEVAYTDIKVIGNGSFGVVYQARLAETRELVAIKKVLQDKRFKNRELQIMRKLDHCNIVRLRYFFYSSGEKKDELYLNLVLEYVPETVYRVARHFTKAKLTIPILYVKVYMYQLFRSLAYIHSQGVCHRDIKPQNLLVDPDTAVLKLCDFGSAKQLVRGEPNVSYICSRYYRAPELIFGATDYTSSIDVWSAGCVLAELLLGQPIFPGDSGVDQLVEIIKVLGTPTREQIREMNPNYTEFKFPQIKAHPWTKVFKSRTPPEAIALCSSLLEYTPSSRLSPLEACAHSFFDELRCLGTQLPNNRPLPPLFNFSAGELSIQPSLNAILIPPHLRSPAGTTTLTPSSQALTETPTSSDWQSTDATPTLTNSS
Assay [2] addresses T2, Glycogen synthase kinase-3 beta (Homo sapiens, UniProt P49841). As to the kind of experiment: Inhibition of GSK3beta (unknown origin).
Target sequence in this assay (P49841 whole entry): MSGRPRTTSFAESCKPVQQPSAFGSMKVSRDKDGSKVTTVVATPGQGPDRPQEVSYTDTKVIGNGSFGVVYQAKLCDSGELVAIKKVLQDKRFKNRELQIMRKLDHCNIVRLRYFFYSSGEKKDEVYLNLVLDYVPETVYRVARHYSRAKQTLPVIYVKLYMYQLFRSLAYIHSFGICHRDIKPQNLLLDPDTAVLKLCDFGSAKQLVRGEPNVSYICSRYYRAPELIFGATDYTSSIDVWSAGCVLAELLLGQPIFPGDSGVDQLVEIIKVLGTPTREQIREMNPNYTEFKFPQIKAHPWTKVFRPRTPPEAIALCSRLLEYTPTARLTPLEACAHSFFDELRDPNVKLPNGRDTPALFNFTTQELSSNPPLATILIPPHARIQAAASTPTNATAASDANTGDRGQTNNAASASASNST
The target of assay [3] is T1, Glycogen synthase kinase-3 alpha. As to the kind of experiment: Inhibition of GSK3alpha (unknown origin) at 2 uM relative to control.
Target sequence in this assay (P49840 2-483 limits assumed): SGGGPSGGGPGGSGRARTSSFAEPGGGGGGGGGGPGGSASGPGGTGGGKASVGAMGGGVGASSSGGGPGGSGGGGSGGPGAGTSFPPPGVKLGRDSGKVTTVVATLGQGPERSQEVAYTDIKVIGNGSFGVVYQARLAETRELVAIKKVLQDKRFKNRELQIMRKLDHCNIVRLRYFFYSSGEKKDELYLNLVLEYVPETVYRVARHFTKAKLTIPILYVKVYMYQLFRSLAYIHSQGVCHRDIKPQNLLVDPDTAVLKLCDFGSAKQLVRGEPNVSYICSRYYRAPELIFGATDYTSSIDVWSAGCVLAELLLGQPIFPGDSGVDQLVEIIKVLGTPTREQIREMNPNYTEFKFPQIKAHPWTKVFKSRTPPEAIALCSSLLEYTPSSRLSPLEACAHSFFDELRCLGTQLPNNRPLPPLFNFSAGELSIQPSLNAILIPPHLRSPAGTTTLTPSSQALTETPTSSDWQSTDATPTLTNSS
The target in assay [4] is T2, Glycogen synthase kinase-3 beta. Put plainly: Inhibition of GSK3beta (unknown origin) at 2 uM relative to control.
Target sequence in this assay (P49841 whole entry, looked up): as the sequence (P49841 whole entry) above

`OC1(c2ccccc2)CSC(=S)N1Cc1ccccn1` (stereo not drawn): the IC50 in assay [1] and in assay [2] was above 10 µM in each case.
Regarding `OC1(c2ccccc2)CSC(=S)N1Cc1ccccc1` (stereo not drawn), the IC50 in assay [1] and in assay [2] was above 10 µM throughout.
Regarding `OC1(c2ccccc2)CSC(=S)N1Cc1ccncc1` (stereo not drawn), the IC50 stood at 0.0182 µM in assay [1] and 0.0122 µM in assay [2]. Moreover, the inhibition in assay [3] and in assay [4] was above 90% each time.
